# Results: publication PMC9141242, “Enhanced Soluble Expression of Linoleic Acid Isomerase by Coordinated Regulation of Promoter and Fusion Tag in Escherichia coli” (Foods, 2022)
# Target: T1, MBP-PAI (Cutibacterium acnes, UniProt Q6A8X5)
# T1 construct: gene PPA1039; PAI (about 50 kDa); synthesized gene in pET-24a(+), E. coli BL21(DE3)
# T1 sequence (Q6A8X5 1-424): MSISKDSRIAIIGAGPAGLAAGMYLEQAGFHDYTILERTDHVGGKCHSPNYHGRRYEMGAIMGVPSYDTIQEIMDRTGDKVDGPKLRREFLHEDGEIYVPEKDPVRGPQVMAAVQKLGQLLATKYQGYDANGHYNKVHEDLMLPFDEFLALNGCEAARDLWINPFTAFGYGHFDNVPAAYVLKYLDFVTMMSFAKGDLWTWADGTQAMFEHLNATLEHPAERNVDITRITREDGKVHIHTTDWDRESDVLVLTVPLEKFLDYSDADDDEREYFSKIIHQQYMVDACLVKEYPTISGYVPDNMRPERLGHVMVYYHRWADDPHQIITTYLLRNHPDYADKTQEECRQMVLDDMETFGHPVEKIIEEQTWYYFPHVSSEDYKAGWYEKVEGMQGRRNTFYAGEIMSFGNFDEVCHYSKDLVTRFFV
# Assay: spectrophotometry at […] nm, CLA formation, Lineweaver-Burk
# Type: biochemical
# Details: optimal conditions (37 °C, pH 7.5, 1 mmol/L Tween-20); LA 71-1428 μM; MBP tag not cleaved; apparent
compound,measurement,value
CCCCC/C=C\C/C=C\CCCCCCCC(=O)O [linoleic acid],Km,254 µM
